From patent publication US20030009213A1, “Stent having cover with drug delivery capability” (priority 2000, published 2003)

Experiment: Release of Taxol from a coated ePTFE stent cover after implantation
Format: in vivo
Conditions: first week after implantation; ePTFE stent cover with outer layer of Taxol, gelatin and poly(e-caprolactone) mixture (20:20:60)
Description: A polymeric stent cover, made of ePTFE, is provided with another layer of Taxol, gelatin, and poly(e-caprolactone) mixture (20:20:60) on the outside. 20% of the Taxol is released to the artery wall during the first week after implantation.

CC(=O)O[C@H]1C(=O)[C@@]2(C)[C@H]([C@H](OC(=O)c3ccccc3)[C@]3(O)C[C@H](OC(=O)[C@H](O)[C@@H](NC(=O)c4ccccc4)c4ccccc4)C(C)=C1C3(C)C)[C@]1(OC(C)=O)CO[C@@H]1C[C@@H]2O [Taxol]
Taxol released to the artery wall: 20%
